Assay results published in patent US12594261B2, “Use of heterocyclic derivatives with cardiomyocyte proliferation activity for treatment of heart diseases” (SHANGHAI EAST HOSPITAL (EAST HOSPITAL, TONGJI UNIVERSITY …, priority 2019, dated 2026).

System: neonatal rat ventricular myocytes (NRVMs)
Assay: Myocyte proliferation assay (EdU) in neonatal rat ventricular myocytes
Format: cell-based
Conditions: Rattus norvegicus, Ventricular myocyte, growth relative to blank myocyte growth without compound added; for activation at 1 µM: 1 uM compound; for activation at 3 µM: 3 uM compound; for activation at 10 µM: 10 uM compound
Description: 1. Isolation of and Culture Neonatal Rat Ventricular Myocytes (NRVMs)
Ventricles from neonatal rats were separated from the atria, cut into small pieces (about 2×2 mm^2) and then dissociated in Ca^2+-free HBSS containing 0.125 mg ml-1 trypsin (Gibco), 10 μg ml-1 DNase II (Sigma) and 0.1 mg ml-1 collagenase type IV (Sigma). The digestion was carried out under constant stirring at 37° C. for 5 min. The supernatant was collected with FBS (Gibco) after each digestion period. After digestion, the collected supernatant was centrifuged at 1000 g for 10 min at room temperature, and then cell pellets were resuspended in DMEM (Gibco) supplemented with 10% FBS and with 100 uM 5-bromo-2′-deoxyuridine (Sigma). The resuspended cells were passed through a cell strainer ([…], BD Falcon) and seeded onto 100-mm plastic dishes for 2 h at 37° C. in a 5% CO2 to remove fibroblasts, the supernatant was then collected and plated onto 1% gelatin (Sigma)-coated dishes. 24 h after the seeding, the medium was changed to DMEM (Gibco) containing 2% FBS (Gibco), 1% insulin-transferrin-selenium (ITS; Gibco), 1% Penicillin-Streptomycin (Gibco). After 24 hours of low serum culture, remove the medium with DMEM (Gibco) containing 6% FBS (Gibco), 1% insulin-transferrin-selenium (ITS; Gibco), 1% Penicillin-Streptomycin (Gibco), different concentrations of compounds (the compounds were pre-diluted in the medium and the drug concentration was 10 uM, 3 uM, 1 uM, fully mixed). After 36 h add Edu substrate (Invitrogen) according to the manufacturer's guidelines, and then after 12 h cell can be used.
2.1. Immobilization: Remove the medium and fix the cells with […] in 200 ul (whichever is covered) for 15 min and wash the cells twice with 500 ul of PBS for 5 min each time.
2.2. Broken membrane: Add 200 ul of 0.3% Triton-X 100 (diluted in PBS) to each well, incubate for 10-15 min at room temperature (the time should not be too long), and wash the cells twice with 500 ul of PBS for 5 min each time.
2.3. Blocking: Add 200 ul of 10% normal goat serum (diluted with 0.1% PBST) to each well, incubate for 1 h at room temperature, and wash twice with 500 ul of 0.1% PBST for 5 min each time.
2.4. Primary antibody: dilute the primary antibody (abcam, ab8295) to blocking solution at a ratio of 1:200, add 100 ul per well, incubate for 1 h at room temperature (may be slightly longer than 2-3 h), wash the cells twice with 500 ul 0.1% PBST for 5 min each time.
2.5. Secondary antibody: Dilute the fluorescently labeled secondary antibody (abcam, ab150117) into blocking solution at a ratio of 1:200, add 100 ul per well, incubate for 1 h at room temperature (the time should not be too long), wash the cells twice with 0.1% PBST for 5 min each time, pay attention to the whole process. Protected from light.
2.6. Edu staining (Invitrogen C10338)
2.6.1 Prepare Click-iT® reaction cocktail according to Table 3. It was important to add the ingredients in the order listed in the table; otherwise, the reaction would not proceed optimally. Use the Click-iT® reaction cocktail within 15 minutes of preparation.
2.6.2 Add 0.1 mL of Click-iT® reaction cocktail to each well containing a coverslip. Rock the plate briefly to ensure that the reaction cocktail is distributed evenly over the coverslip.
2.6.3 Incubate the plate for 30 minutes at room temperature, protected from light.
2.6.4 Remove the reaction cocktail, then wash the cells twice with 0.1% PBST for 5 min each time.
2.7. DAPI staining: DAPI stain was diluted to PBS at a ratio of 1:1000, 100 ul per well, incubated for 30 min at room temperature, and the cells were washed twice with PBS for 5 min each.
We used Molecular Devices' Image Xpress Micro Confocal for high-throughput photo and data analysis.

SMILES	activation at 1 µM [%]	activation at 3 µM [%]	activation at 10 µM [%]
CN1C(=O)/C(=C/c2ccc3c(c2)OCO3)N=C1Nc1ccc2c(c1)OCO2 [TJU-B088, (4Z)-2-[(2H-1,3-benzodioxol-5-yl)amino]-4-[(2H-1,3-benzodioxol-5-yl)methylidene]-1-methyl-4,5-dihydro-1H-imidazol-5-one]	10 to 50	< 10	< 10
N#Cc1ccc(NC2=N/C(=C\c3ccc4c(c3)OCO4)C(=O)N2)cc1 [TJU-B058, 4-{[(4Z)-4-[(2H-1,3-benzodioxol-5-yl)methylidene]-5-oxo-4,5-dihydro-1H-imidazol-2-yl]amino} benzonitrile]	10 to 50	< 10	< 10
COc1ccc(NC2=N/C(=C\c3ccc4c(c3)OCCO4)C(=O)N2)cc1 [TJU-B006, (4Z)-4-[(2,3-dihydro-1,4-benzodioxin-6-yl)methylidene]-2-[(4-methoxyphenyl)amino]-4,5-dihydro-1H-imidazol-5-one]	10 to 50	10 to 50	> 50
Nc1ccc(NC2=N/C(=C\c3ccc4c(c3)OCO4)C(=O)N2)cc1 [TJU-B021, (4Z)-2-[(4-aminophenyl)amino]-4-[(2H-1,3-benzodioxol-5-yl)methylidene]-4,5-dihydro-1H-imidazol-5-one]	< 10	< 10	> 50
NC1=N/C(=C\c2ccc3c(c2)OCO3)C(=O)N1 [TJU-B034, (4Z)-2-amino-4-[(2H-1,3-benzodioxol-5-yl)methylidene]-4,5-dihydro-1H-imidazol-5-one]	< 10	< 10	10 to 50
O=C1NC(Nc2cccnc2)=N/C1=C\c1ccc2c(c1)OCO2 [TJU-B031, (4Z)-4-[(2H-1,3-benzodioxol-5-yl)methylidene]-2-[(pyridin-3-yl)amino]-4,5-dihydro-1H-imidazol-5-one]	< 10	< 10	10 to 50
CN1C(=O)/C(=C/c2ccc3c(c2)OCO3)N=C1Nc1ccccc1 [TJU-B014, (4Z)-4-[(2H-1,3-benzodioxol-5-yl)methylidene]-1-methyl-2-(phenylamino)-4,5-dihydro-1H-imidazol-5-one]	< 10	10 to 50	> 50
COc1ccc(NC2=N/C(=C\c3ccc4c(c3)OCO4)C(=O)N2)cc1 [TJU-B009, (4Z)-4-[(2H-1,3-benzodioxol-5-yl)methylidene]-2-[(4-methoxyphenyl)amino]-4,5-dihydro-1H-imidazol-5-one]	10 to 50	10 to 50	> 50
COc1cccc(/C=C2\N=C(N)N(C)C2=O)c1 [TJU-B036, (4Z)-2-amino-4-[(3-methoxyphenyl)methylidene]-1-methyl-4,5-dihydro-1H-imidazol-5-one]	10 to 50	< 10	10 to 50
O=C1NC(Nc2ccccc2)=N/C1=C\c1ccc2c(c1)OC(F)(F)O2 [TJU-B028, (4Z)-4-[(2,2-difluoro-2H-1,3-benzodioxol-5-yl)methylidene]-2-(phenylamino)-4,5-dihydro-1H-imidazol-5-one]	< 10	< 10	10 to 50
O=C1NC(Nc2ccccc2)=N/C1=C\c1cc2c(cc1Cl)OCO2 [TJU-B011, (4Z)-4-[(6-chloro-2H-1,3-benzodioxol-5-yl)methylidene]-2-(phenylamino)-4,5-dihydro-1H-imidazol-5-one]	10 to 50	10 to 50	> 50
O=C1NC(c2ccccc2)=N/C1=C\c1ccc2c(c1)OCO2 [TJU-B039, (4Z)-4-[(2H-1,3-benzodioxol-5-yl)methylidene]-2-phenyl-4,5-dihydro-1H-imidazol-5-one]	< 10		10 to 50
O=C1NC(NCc2ccccc2)=N/C1=C\c1ccc2c(c1)OCO2 [TJU-B019, (4Z)-4-[(2H-1,3-benzodioxol-5-yl)methylidene]-2-(benzylamino)-4,5-dihydro-1H-imidazol-5-one]	< 10	< 10	> 50
CN1C(=O)/C(=C/c2ccccc2F)N=C1N [TJU-B067, (4Z)-2-amino-4-[(2-fluorophenyl)methylidene]-1-methyl-4,5-dihydro-1H-imidazol-5-one]	< 10	< 10	< 10
O=C1NC(Nc2ccccc2)=N/C1=C\c1ccc2c(c1)OCO2 [TJU-B043, (4Z)-4-[(2H-1,3-benzodioxol-5-yl)methylidene]-2-(phenylamino)-4,5-dihydro-1H-imidazol-5-one]	10 to 50	10 to 50	10 to 50
C/C(=C1/N=C(Nc2ccccc2)NC1=O)c1ccc2c(c1)OCO2 [TJU-B013, (4Z)-4-[1-(2H-1,3-benzodioxol-5-yl)ethylidene]-2-(phenylamino)-4,5-dihydro-1H-imidazol-5-one]	< 10	10 to 50	> 50
NC1=N/C(=C\c2cc3c(cc2Cl)OCO3)C(=O)N1 [TJU-B064, (4Z)-2-amino-4-[(6-chloro-2H-1,3-benzodioxol-5-yl)methylidene]-4,5-dihydro-1H-imidazol-5-one]	< 10	< 10	< 10
O=C1NC(Nc2ccccn2)=N/C1=C\c1ccc2c(c1)OCO2 [TJU-B097, (4Z)-4-[(2H-1,3-benzodioxol-5-yl)methylidene]-2-[(pyridin-2-yl)amino]-4,5-dihydro-1H-imidazol-5-one]	< 10	< 10	< 10
COc1cc(/C=C2\N=C(N)NC2=O)cc2c1OCO2 [TJU-B065, (4Z)-2-amino-4-[(7-methoxy-2H-1,3-benzodioxol-5-yl)methylidene]-4,5-dihydro-1H-imidazol-5-one]	< 10	< 10	< 10
O=C1NC(Nc2ccc3c(c2)OCO3)=N/C1=C\c1ccc2c(c1)OCO2 [TJU-B027, (4Z)-2-[(2H-1,3-benzodioxol-5-yl)amino]-4-[(2H-1,3-benzodioxol-5-yl)methylidene]-4,5-dihydro-1H-imidazol-5-one]	< 10	< 10	10 to 50
O=C1NC(C2CC2)=N/C1=C\c1ccc2c(c1)OCO2 [TJU-B059, (4Z)-4-[(2H-1,3-benzodioxol-5-yl)methylidene]-2-cyclopropyl-4,5-dihydro-1H-imidazol-5-one]	< 10	< 10	< 10
